Data on five sequences can be found in publication PMC4182091, “A Common Minimal Motif for the Ligands of HLA-B*27 Class I Molecules” (PLoS ONE, 2014).

Read-outs that look alike come from different tables or passages of the source. Ends that are not written are not given here.

By EC50 is commonly meant the midpoint of the concentration-response curve.

Format in all cases: cell-based
One test addresses T1, HLA-B*2705 (Homo sapiens, UniProt P01889, D138H/D201E/E176V/E204Q/G107R/H137Y/K202T/N104T/N87E/Q56L/Q94K/R106L/R155S/R180L/S101D/S121N/S48T/Y140D/Y33H/Y91C).
T1 construct: expressed in transfected cells; host or cells: RMA-S (TAP-deficient murine cell line)
The experiment in a line: HLA/peptide complex stability assay, RMA-S cells transfected with HLA-B*2705.

The target of the next test is HLA-B*2702 (Homo sapiens, UniProt P01889, D138H/D201E/E176V/E204Q/G107R/H137Y/K202T/L105A/N104I/N87E/Q56L/Q94K/R106L/R155S/R180L/S101N/S121N/S48T/Y140D/Y33H/Y91C). The experiment in a line: HLA/peptide complex stability assay, RMA-S cells transfected with HLA-B*2702.
In the next test the target is T2, HLA-B*2701 (Homo sapiens, UniProt P01889, D138H/D201E/D98Y/E176V/E204Q/G107R/H137Y/K202T/L105A/N104T/N87E/Q56L/Q94K/R106L/R155S/R180L/S101N/S121N/S48T/Y140D/Y33H/Y91C).
T2 construct: expressed in transfected cells; host or cells: RMA-S (TAP-deficient murine cell line)
As to the kind of experiment: HLA/peptide complex stability assay, RMA-S cells transfected with HLA-B*2701.

The next test has as its target T3, HLA-B*2709 (Homo sapiens, UniProt P01889, D138H/D201E/E176V/E204Q/G107R/H137Y/K202T/N104T/N87E/Q56L/Q94K/R106L/R155S/R180L/S101D/S121N/S48T/Y140H/Y33H/Y91C).
T3 construct: expressed in transfected cells; host or cells: RMA-S (TAP-deficient murine cell line)
The experiment in a line: HLA/peptide complex stability assay, RMA-S cells transfected with HLA-B*2709.

The target in the next test is T4, HLA-B*2706 (Homo sapiens, UniProt P01889, A235G/D201E/E204Q/G107R/H137Y/K202T/N104T/N87E/Q56L/Q94K/R106L/R155S/R180L/S121N/S48T/Y33H/Y91C).
T4 construct: expressed in transfected cells; host or cells: RMA-S (TAP-deficient murine cell line)
The experiment in a line: HLA/peptide complex stability assay, RMA-S cells transfected with HLA-B*2706.

The target in another test is HLA-B*2704 (Homo sapiens, UniProt P01889, A235G/D138H/D201E/E204Q/G107R/H137Y/K202T/N104T/N87E/Q56L/Q94K/R106L/R155S/R180L/S121N/S48T/Y140D/Y33H/Y91C). The experiment in a line: HLA/peptide complex stability assay, RMA-S cells transfected with HLA-B*2704.
For a further test, the target named is T5, HLA-B*2703 (Homo sapiens, UniProt P01889, D138H/D201E/E176V/E204Q/G107R/H137Y/K202T/N104T/N87E/Q56L/Q94K/R106L/R155S/R180L/S101D/S121N/S48T/Y140D/Y33H/Y83H/Y91C).
T5 construct: expressed in transfected cells; host or cells: RMA-S (TAP-deficient murine cell line)
The experiment in a line: HLA/peptide complex stability assay, RMA-S cells transfected with HLA-B*2703.

Where [1] appears, read: relative affinity (EC50 class), B*2702.
Setting [2] is: relative affinity (EC50 class), B*2701.
Where [3] appears, read: relative affinity (EC50 class), B*2709.
The mark [4] stands for this setting: relative affinity (EC50 class), B*2706.
[5] abbreviates: relative affinity (EC50 class), B*2704.
[6] abbreviates: relative affinity (EC50 class), B*2703.

Regarding “KRAVGIGAL [HIV gp160 500-508, reference compound]”, the EC50 was 12 ± 3 µM at HLA-B*2705 (Table 2, peptide concentration at 50% of maximum fluorescence, range 0.01–200 µM, transfected RMA-S cells, flow cytometry, mean ± S.D. of three to five independent experiments, - = no statistical difference in fluorescence index to negative control, SD, read-out: EC50, B*2705); 16 ± 6 µM on HLA-B*2702 (Table 2, peptide concentration at 50% of maximum fluorescence, range 0.01–200 µM, transfected RMA-S cells, flow cytometry, mean ± S.D. of three to five independent experiments, - = no statistical difference in fluorescence index to negative control, SD, read-out: EC50, B*2702); 17 ± 3 µM on HLA-B*2701 (Table 2, peptide concentration at 50% of maximum fluorescence, range 0.01–200 µM, transfected RMA-S cells, flow cytometry, mean ± S.D. of three to five independent experiments, - = no statistical difference in fluorescence index to negative control, SD, read-out: EC50, B*2701); 8 ± 1 µM at HLA-B*2709 (Table 2, peptide concentration at 50% of maximum fluorescence, range 0.01–200 µM, transfected RMA-S cells, flow cytometry, mean ± S.D. of three to five independent experiments, - = no statistical difference in fluorescence index to negative control, SD, read-out: EC50, B*2709); 1 ± 1 µM at HLA-B*2706 (Table 2, peptide concentration at 50% of maximum fluorescence, range 0.01–200 µM, transfected RMA-S cells, flow cytometry, mean ± S.D. of three to five independent experiments, - = no statistical difference in fluorescence index to negative control, SD, read-out: EC50, B*2706); 24 ± 8 µM on HLA-B*2704 (Table 2, peptide concentration at 50% of maximum fluorescence, range 0.01–200 µM, transfected RMA-S cells, flow cytometry, mean ± S.D. of three to five independent experiments, - = no statistical difference in fluorescence index to negative control, SD, read-out: EC50, B*2704). The EC50 at HLA-B*2704 (Table 3, classes of EC50 from stabilization assay in transfected RMA-S cells, read-out: relative affinity (EC50 class), B*2704) was 20 to 60 µM; at HLA-B*2703 (Table 2, peptide concentration at 50% of maximum fluorescence, range 0.01–200 µM, transfected RMA-S cells, flow cytometry, mean ± S.D. of three to five independent experiments, - = no statistical difference in fluorescence index to negative control, SD, read-out: EC50, B*2703) it was 14 ± 7 µM.
KRLPADVLKK [M2 150-159]: on HLA-B*2705, the “relative MHC class I affinity according to the EC50 value, in words (high, medium, low)” value (“relative MHC class I affinity according” for short) is listed as “high”. Also, the EC50 on HLA-B*2705 (EC50, B*2705, SD) is 18 ± 3 µM; at HLA-B*2702 (EC50, B*2702, SD) it was 136 ± 63 µM; at HLA-B*2702 (setting [1]), 61 to 200 µM; on HLA-B*2701 (read-out: EC50, B*2701), more than 200 µM; at HLA-B*2701 (setting [2]), more than 200 µM; on HLA-B*2709 (EC50, B*2709, SD), 22 ± 9 µM. Further, the EC50 at HLA-B*2709 (setting [3]) was 20 to 60 µM; on HLA-B*2706 (EC50, B*2706), more than 200 µM; at HLA-B*2706 (setting [4]) it was more than 200 µM; at HLA-B*2704 (EC50, B*2704, SD), 73 ± 9 µM; at HLA-B*2704 (setting [5]) it was 61 to 200 µM; on HLA-B*2703 (EC50, B*2703, SD), 78 ± 10 µM. For the same sequence, the EC50 on HLA-B*2703 (setting [6]) is 61 to 200 µM.
In the case of KRYKGLLPKDI [NP 195-205], the “relative MHC class I affinity according” value on HLA-B*2705 was “high”. For the same sequence, the EC50 was 7 ± 5 µM at HLA-B*2705 (EC50, B*2705, SD); 9 ± 1 µM at HLA-B*2702 (EC50, B*2702, SD); 8 ± 1 µM at HLA-B*2701 (EC50, B*2701, SD); 7 ± 2 µM at HLA-B*2709 (EC50, B*2709, SD); 1 ± 1 µM on HLA-B*2706 (EC50, B*2706, SD); 16 ± 3 µM on HLA-B*2704 (EC50, B*2704, SD). The EC50 at HLA-B*2703 (EC50, B*2703, SD) was found to be 20 ± 11 µM.
With LRNEESEKMAK [P 198-208], the “relative MHC class I affinity according” value on HLA-B*2705 is listed as “low affinity”. Moreover, the EC50 was 98 ± 35 µM at HLA-B*2705 (EC50, B*2705, SD); 61 to 200 µM at HLA-B*2705 (relative affinity (EC50 class), B*2705); more than 200 µM at HLA-B*2702 (read-out: EC50, B*2702); more than 200 µM at HLA-B*2702 (setting [1]); more than 200 µM at HLA-B*2701 (read-out: EC50, B*2701); more than 200 µM on HLA-B*2701 (setting [2]). Moreover, the EC50 at HLA-B*2709 (EC50, B*2709, SD) is 86 ± 12 µM; at HLA-B*2709 (setting [3]) it was 61 to 200 µM; on HLA-B*2706 (EC50, B*2706) it was more than 200 µM; on HLA-B*2706 (setting [4]), more than 200 µM; on HLA-B*2704 (read-out: EC50, B*2704) it was more than 200 µM; at HLA-B*2704 (setting [5]), more than 200 µM. The EC50 is more than 200 µM at HLA-B*2703 (EC50, B*2703) and more than 200 µM at HLA-B*2703 (setting [6]).
On to RRAAAAAAAI [RRA7I], for which the EC50 on HLA-B*2705 (SD) was 4 ± 3 µM; at HLA-B*2702 (EC50, B*2702, SD), 28 ± 16 µM; at HLA-B*2702 (read-out: relative affinity (EC50 class), B*2702) it was 20 to 60 µM; on HLA-B*2701 (SD) it was 7 ± 2 µM; at HLA-B*2709 (EC50, B*2709, SD), 2 ± 1 µM; at HLA-B*2706 (SD) it was 2 ± 1 µM. Further, the EC50 is 7 ± 2 µM at HLA-B*2704 (SD) and 7 ± 5 µM at HLA-B*2703 (EC50, B*2703, SD).
